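In this assay, cells in 96-well plates receive the compound at five concentrations for 48 hours. Endpoints are linearly interpolated between the surrounding concentrations. TGI is the concentration that stops growth completely.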
Legend:
Experiment in all cases: DTP human tumour cell line panel, 48 h
786-0 renal = system: 786-0 renal
A498 renal = system: A498 renal
A549 NSCLC = system: A549 NSCLC
ACHN renal = system: ACHN renal
CAKI-1 renal = system: CAKI-1 renal
CCRF-CEM leukemia = system: CCRF-CEM leukemia
COLO 205 colon = system: COLO 205 colon
DU-145 prostate = system: DU-145 prostate
EKVX NSCLC = system: EKVX NSCLC
HCC-2998 colon = system: HCC-2998 colon
HCT-116 colon = system: HCT-116 colon
HCT-15 colon = system: HCT-15 colon
HL-60(TB) leukemia = system: HL-60(TB) leukemia
HOP-62 NSCLC = system: HOP-62 NSCLC
HOP-92 NSCLC = system: HOP-92 NSCLC
HS 578T breast = system: HS 578T breast
HT29 colon = system: HT29 colon
IGROV1 ovarian = system: IGROV1 ovarian
K-562 leukemia = system: K-562 leukemia
KM12 colon = system: KM12 colon
LOX IMVI melanoma = system: LOX IMVI melanoma
M14 melanoma = system: M14 melanoma
MALME-3M melanoma = system: MALME-3M melanoma
MCF7 breast = system: MCF7 breast
MDA-MB-231 breast = system: MDA-MB-231 breast
MDA-MB-435 = system: MDA-MB-435
MDA-N = system: MDA-N
MOLT-4 leukemia = system: MOLT-4 leukemia
NCI-H226 lung = system: NCI-H226 lung
NCI-H23 lung = system: NCI-H23 lung
NCI-H460 lung = system: NCI-H460 lung
NCI-H522 lung = system: NCI-H522 lung
NCI/ADR-RES ovarian = system: NCI/ADR-RES ovarian
OVCAR-3 ovarian = system: OVCAR-3 ovarian
OVCAR-4 ovarian = system: OVCAR-4 ovarian
OVCAR-5 ovarian = system: OVCAR-5 ovarian
OVCAR-8 ovarian = system: OVCAR-8 ovarian
PC-3 prostate = system: PC-3 prostate
RPMI-8226 leukemia = system: RPMI-8226 leukemia
RXF 393 renal = system: RXF 393 renal
SF-268 CNS = system: SF-268 CNS
SF-295 CNS = system: SF-295 CNS
SF-539 CNS = system: SF-539 CNS
SK-MEL-2 melanoma = system: SK-MEL-2 melanoma
SK-MEL-28 melanoma = system: SK-MEL-28 melanoma
SK-MEL-5 melanoma = system: SK-MEL-5 melanoma
SK-OV-3 ovarian = system: SK-OV-3 ovarian
SN12C renal = system: SN12C renal
SNB-19 CNS = system: SNB-19 CNS
SNB-75 CNS = system: SNB-75 CNS
SR leukemia = system: SR leukemia
SW-620 colon = system: SW-620 colon
T-47D breast = system: T-47D breast
TK-10 renal = system: TK-10 renal
U251 CNS = system: U251 CNS
UACC-257 melanoma = system: UACC-257 melanoma
UACC-62 melanoma = system: UACC-62 melanoma
UO-31 renal = system: UO-31 renal

CC(=NNC(=S)Nc1cccc(C)c1)c1cccc(C(C)=NNC(=S)Nc2cccc(C)c2)n1
TGI (786-0 renal): 63.6 µM
TGI (A498 renal): 61.6 µM
TGI (A549 NSCLC): 87.1 µM
TGI (ACHN renal): 46.4 µM
TGI (CAKI-1 renal): 71.1 µM
TGI (CCRF-CEM leukemia): > 100 µM
TGI (COLO 205 colon): 38.5 µM
TGI (DU-145 prostate): > 100 µM
TGI (EKVX NSCLC): > 100 µM
TGI (HCC-2998 colon): > 100 µM
TGI (HCT-116 colon): 37.8 µM
TGI (HCT-15 colon): > 100 µM
TGI (HL-60(TB) leukemia): 70.1 µM
TGI (HOP-62 NSCLC): > 100 µM
TGI (HOP-92 NSCLC): 63.2 µM
TGI (HS 578T breast): > 100 µM
TGI (HT29 colon): > 100 µM
TGI (IGROV1 ovarian): 46.7 µM
TGI (K-562 leukemia): > 100 µM
TGI (KM12 colon): 59.3 µM
TGI (LOX IMVI melanoma): 85.3 µM
TGI (M14 melanoma): 39.3 µM
TGI (MALME-3M melanoma): 49.2 µM
TGI (MCF7 breast): 77.7 µM
TGI (MDA-MB-231 breast): 59.9 µM
TGI (MDA-MB-435): > 100 µM
TGI (MDA-N): > 100 µM
TGI (MOLT-4 leukemia): 61.6 µM
TGI (NCI-H226 lung): 95.1 µM
TGI (NCI-H23 lung): > 100 µM
TGI (NCI-H460 lung): > 100 µM
TGI (NCI-H522 lung): 57.9 µM
TGI (NCI/ADR-RES ovarian): 76.6 µM
TGI (OVCAR-3 ovarian): 26.8 µM
TGI (OVCAR-4 ovarian): 38.5 µM
TGI (OVCAR-5 ovarian): > 100 µM
TGI (OVCAR-8 ovarian): 76.3 µM
TGI (PC-3 prostate): > 100 µM
TGI (RPMI-8226 leukemia): > 100 µM
TGI (RXF 393 renal): 61.1 µM
TGI (SF-268 CNS): > 100 µM
TGI (SF-295 CNS): 34 µM
TGI (SF-539 CNS): 46.1 µM
TGI (SK-MEL-2 melanoma): 74 µM
TGI (SK-MEL-28 melanoma): > 100 µM
TGI (SK-MEL-5 melanoma): 30.8 µM
TGI (SK-OV-3 ovarian): > 100 µM
TGI (SN12C renal): > 100 µM
TGI (SNB-19 CNS): > 100 µM
TGI (SNB-75 CNS): 69.2 µM
TGI (SR leukemia): 40.8 µM
TGI (SW-620 colon): 70.5 µM
TGI (T-47D breast): > 100 µM
TGI (TK-10 renal): 61.5 µM
TGI (U251 CNS): 93.3 µM
TGI (UACC-257 melanoma): 0.0745 µM
TGI (UACC-62 melanoma): > 100 µM
TGI (UO-31 renal): 86.3 µM

CC(=O)O[C@@H]1C(=O)N(c2ccccc2)[C@@H]1c1cc2ccccc2c2ccccc12
TGI (786-0 renal): > 100 µM
TGI (A498 renal): > 100 µM
TGI (A549 NSCLC): > 100 µM
TGI (ACHN renal): > 100 µM
TGI (CAKI-1 renal): 36.8 µM
TGI (CCRF-CEM leukemia): > 100 µM
TGI (COLO 205 colon): 32.3 µM
TGI (DU-145 prostate): > 100 µM
TGI (EKVX NSCLC): > 100 µM
TGI (HCC-2998 colon): 61.2 µM
TGI (HCT-116 colon): 91 µM
TGI (HCT-15 colon): > 100 µM
TGI (HL-60(TB) leukemia): 58.2 µM
TGI (HOP-62 NSCLC): > 100 µM
TGI (HOP-92 NSCLC): > 100 µM
TGI (HS 578T breast): > 100 µM
TGI (HT29 colon): > 100 µM
TGI (IGROV1 ovarian): 61.9 µM
TGI (K-562 leukemia): > 100 µM
TGI (KM12 colon): > 100 µM
TGI (LOX IMVI melanoma): 64.3 µM
TGI (M14 melanoma): > 100 µM
TGI (MALME-3M melanoma): 88.9 µM
TGI (MCF7 breast): > 100 µM
TGI (MDA-MB-231 breast): 75.1 µM
TGI (MDA-MB-435): 48.1 µM
TGI (MDA-N): > 100 µM
TGI (MOLT-4 leukemia): 56 µM
TGI (NCI-H226 lung): > 100 µM
TGI (NCI-H23 lung): > 100 µM
TGI (NCI-H460 lung): > 100 µM
TGI (NCI-H522 lung): 11.2 µM
TGI (NCI/ADR-RES ovarian): > 100 µM
TGI (OVCAR-3 ovarian): 83.4 µM
TGI (OVCAR-4 ovarian): 78.5 µM
TGI (OVCAR-5 ovarian): > 100 µM
TGI (OVCAR-8 ovarian): > 100 µM
TGI (PC-3 prostate): > 100 µM
TGI (RPMI-8226 leukemia): 82.6 µM
TGI (RXF 393 renal): 62.6 µM
TGI (SF-268 CNS): > 100 µM
TGI (SF-295 CNS): > 100 µM
TGI (SF-539 CNS): 96.9 µM
TGI (SK-MEL-2 melanoma): 40.6 µM
TGI (SK-MEL-28 melanoma): > 100 µM
TGI (SK-MEL-5 melanoma): 59.4 µM
TGI (SK-OV-3 ovarian): > 100 µM
TGI (SN12C renal): > 100 µM
TGI (SNB-19 CNS): > 100 µM
TGI (SR leukemia): 52.9 µM
TGI (T-47D breast): 85.7 µM
TGI (TK-10 renal): > 100 µM
TGI (U251 CNS): > 100 µM
TGI (UACC-257 melanoma): > 100 µM
TGI (UACC-62 melanoma): > 100 µM
TGI (UO-31 renal): 87 µM

Source: PubChem BioAssay (NCI)
